Consider 2 compounds from patent publication US11020408B2, “Polymer composed of repeat units having a biologically active molecule attached thereto via a pH-sensitive bond” (SPIREA LIMITED, priority 2014, dated 2021).

The assay concerns Mycobacterium bovis BCG-lux grown in human monocyte-derived macrophages. It counts as cell-based.

Each structure is given as a SMILES string.

Consider `CC[C@@H](CO)NCCN[C@@H](CC)CO` [EMB, ethambutol], for which the “effect on BCG-lux viability (in words)” value is listed as “did not reduce BCG-lux viability”.

As for `NNC(=O)c1ccncc1` [INH, isoniazid], the “antibiotic efficacy (in words)” value was “equivalent to the antibiotic efficacy of E80 nanoparticles”, the “antimycobacterial activity (in words)” value was “no antimycobacterial activity”, the “increase of BCG-lux bioluminescence compared to untreated cells” value worked out at 32% and the “reduction of BCG-lux bioluminescence” value was 53%. For the same compound, the “viability lower than control cells” value was 15%.
